Assay results as given in PubChem BioAssay (NCI).
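Protocol summary: plate cells (96-well), add compound at 5 concentrations, incubate 48 h, interpolate endpoints linearly. The concentration for 50% growth inhibition is given as GI50. The concentration for full growth arrest is given as TGI.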

What was measured:
Experiment in all cases: NCI tumour cell line growth inhibition, 48 h
[1] = tested on: DLD-1 colon
[2] = tested on: SK-OV-3 ovarian
[3] = tested on: CAKI-1 renal
[4] = tested on: RPMI-8226 leukemia
[5] = tested on: SW-620 colon
[6] = tested on: SF-268 CNS
[7] = tested on: SNB-75 CNS
[8] = tested on: XF 498 CNS
[9] = tested on: SK-MEL-2 melanoma
[10] = tested on: ACHN renal
[11] = tested on: LOX IMVI melanoma
[12] = tested on: MDA-MB-231 breast
[13] = tested on: HCC-2998 colon
[14] = tested on: K-562 leukemia
[15] = tested on: MDA-N
[16] = tested on: IGROV1 ovarian
[17] = tested on: DU-145 prostate
[18] = tested on: MALME-3M melanoma
[19] = tested on: TK-10 renal
[20] = tested on: HOP-18 NSCLC
[21] = tested on: CCRF-CEM leukemia
[22] = tested on: OVCAR-8 ovarian
[23] = tested on: UO-31 renal
[24] = tested on: LXFL 529 NSCLC
[25] = tested on: NCI-H460 lung
[26] = tested on: UACC-257 melanoma
[27] = tested on: MOLT-4 leukemia
[28] = tested on: BT-549 breast
[29] = tested on: NCI-H23 lung
[30] = tested on: SK-MEL-5 melanoma
[31] = tested on: T-47D breast
[32] = tested on: RXF-631 renal
[33] = tested on: DMS 273 small cell lung
[34] = tested on: OVCAR-5 ovarian
[35] = tested on: OVCAR-3 ovarian
[36] = tested on: SN12C renal
[37] = tested on: U251 CNS
[38] = tested on: HOP-92 NSCLC
[39] = tested on: SNB-78 CNS
[40] = tested on: SF-539 CNS
[41] = tested on: MDA-MB-435
[42] = tested on: A498 renal
[43] = tested on: SK-MEL-28 melanoma
[44] = tested on: COLO 205 colon
[45] = tested on: SF-295 CNS
[46] = tested on: OVCAR-4 ovarian
[47] = tested on: KM20L2 colon
[48] = tested on: DMS 114 small cell lung
[49] = tested on: HL-60(TB) leukemia
[50] = tested on: SNB-19 CNS
[51] = tested on: KM12 colon
[52] = tested on: HT29 colon
[53] = tested on: PC-3 prostate
[54] = tested on: A549 NSCLC
[55] = tested on: HCT-116 colon
[56] = tested on: HS 578T breast
[57] = tested on: MCF7 breast
[58] = tested on: HCT-15 colon
[59] = tested on: EKVX NSCLC
[60] = tested on: HOP-62 NSCLC
[61] = tested on: M19-MEL melanoma
[62] = tested on: NCI-H226 lung
[63] = tested on: M14 melanoma
[64] = tested on: RXF 393 renal
[65] = tested on: 786-0 renal
[66] = tested on: UACC-62 melanoma
[67] = tested on: NCI/ADR-RES ovarian
[68] = tested on: P388/ADR leukemia
[69] = tested on: P388 leukemia
[70] = tested on: NCI-H522 lung
[71] = tested on: SN12K1 renal

Question: Which results are given for `C[N+](C)(C)CC1CCC(C[N+](C)(C)C)C1=O` (stereo not given)?
Answer: TGI [1]: > 100 µM; TGI [2]: 42 µM; TGI [3]: 1.55 µM; TGI [4]: 27.2 µM; GI50 [5]: 1.18 µM; TGI [5]: 2.86 µM; GI50 [6]: 7.26 µM; TGI [6]: 21.2 µM; TGI [7]: 3.51 µM; TGI [8]: 3.74 µM; TGI [9]: 36.9 µM; TGI [10]: 3.49 µM; TGI [11]: 10.3 µM; TGI [12]: 41.3 µM; TGI [13]: 22.5 µM; TGI [14]: 1.34 µM; TGI [15]: 19.3 µM; TGI [16]: 13.6 µM; TGI [17]: 30.5 µM; TGI [18]: 2.28 µM; TGI [19]: 6.39 µM; TGI [20]: 1.85 µM; GI50 [21]: 0.258 µM; TGI [21]: 1.47 µM; GI50 [22]: 14.3 µM; TGI [22]: 38 µM; TGI [23]: 8.51 µM; TGI [24]: 1.57 µM; TGI [25]: 62.8 µM; TGI [26]: 9.05 µM; GI50 [27]: 0.25 µM; TGI [27]: 0.801 µM; TGI [28]: 30.7 µM; TGI [29]: 8.27 µM; TGI [30]: 23.8 µM; TGI [31]: 8.28 µM; TGI [32]: 36.4 µM; TGI [33]: 6.37 µM; TGI [34]: 14.4 µM; TGI [35]: 5.32 µM; TGI [36]: 8.18 µM; TGI [37]: 17.1 µM; TGI [38]: 2.28 µM; TGI [39]: 5.26 µM; TGI [40]: 15.5 µM; TGI [41]: 30.7 µM; TGI [42]: 21.9 µM; GI50 [43]: 5.99 µM; TGI [43]: 11.1 µM; GI50 [44]: 0.457 µM; TGI [44]: 1.58 µM; TGI [45]: 35.9 µM; TGI [46]: 10.8 µM; TGI [47]: 9.78 µM; TGI [48]: 6.74 µM; GI50 [49]: 0.309 µM; TGI [49]: 0.995 µM; TGI [50]: 33.5 µM; TGI [51]: 16.3 µM; TGI [52]: 3.4 µM; TGI [53]: 31.3 µM; TGI [54]: 45.8 µM; TGI [55]: 3.44 µM; TGI [56]: 91.5 µM; TGI [57]: 6.05 µM; TGI [58]: 4.18 µM; GI50 [59]: 4.43 µM; TGI [59]: 17.5 µM; TGI [60]: 36.1 µM; TGI [61]: 3.83 µM; TGI [62]: 23.3 µM; TGI [63]: 3.35 µM; TGI [64]: 3.71 µM; TGI [65]: 4.06 µM; TGI [66]: 17.9 µM

Question: `c1ccc2c(c1)OCCc1cn[nH]c1-2` was tested. Which TGI [1] did it give?
Answer: > 100 µM

Question: What about the TGI [67] of the same compound?
Answer: > 100 µM

Question: And the TGI [2]?
Answer: > 100 µM

Question: What about the TGI [3] of the same compound?
Answer: 87.9 µM

Question: What about the TGI [5] of the same compound?
Answer: > 100 µM

Question: What about the TGI [6] of the same compound?
Answer: > 100 µM

Question: What about the TGI [7] of the same compound?
Answer: > 92.5 µM

Question: And the TGI [8]?
Answer: > 100 µM

Question: And the TGI [9]?
Answer: > 100 µM

Question: And the TGI [11]?
Answer: > 100 µM

Question: What about the TGI [13] of the same compound?
Answer: > 100 µM

Question: And the TGI [14]?
Answer: > 100 µM

Question: What about the TGI [16] of the same compound?
Answer: > 100 µM

Question: What about the TGI [18] of the same compound?
Answer: > 100 µM

Question: And the TGI [20]?
Answer: > 100 µM

Question: What about the TGI [21] of the same compound?
Answer: > 100 µM

Question: What about the TGI [22] of the same compound?
Answer: > 100 µM

Question: What about the TGI [23] of the same compound?
Answer: > 100 µM

Question: What about the TGI [25] of the same compound?
Answer: > 100 µM

Question: What about the TGI [26] of the same compound?
Answer: > 100 µM

Question: What about the TGI [27] of the same compound?
Answer: > 100 µM

Question: And the TGI [68]?
Answer: > 100 µM

Question: And the TGI [29]?
Answer: > 100 µM

Question: And the TGI [30]?
Answer: > 100 µM

Question: And the TGI [33]?
Answer: > 100 µM

Question: What about the TGI [34] of the same compound?
Answer: > 100 µM

Question: What about the TGI [35] of the same compound?
Answer: > 100 µM

Question: And the TGI [36]?
Answer: > 100 µM

Question: What about the TGI [37] of the same compound?
Answer: > 100 µM

Question: What about the TGI [38] of the same compound?
Answer: > 100 µM

Question: What about the TGI [39] of the same compound?
Answer: > 100 µM

Question: What about the TGI [40] of the same compound?
Answer: > 100 µM

Question: What about the TGI [42] of the same compound?
Answer: > 100 µM

Question: And the TGI [43]?
Answer: > 100 µM

Question: What about the TGI [44] of the same compound?
Answer: > 100 µM

Question: And the TGI [45]?
Answer: > 100 µM

Question: And the TGI [46]?
Answer: > 100 µM

Question: What about the TGI [69] of the same compound?
Answer: > 100 µM

Question: And the TGI [47]?
Answer: > 100 µM

Question: And the TGI [48]?
Answer: > 100 µM

Question: And the TGI [49]?
Answer: > 100 µM

Question: And the TGI [50]?
Answer: > 100 µM

Question: And the TGI [70]?
Answer: > 100 µM

Question: And the TGI [71]?
Answer: > 100 µM

Question: What about the TGI [51] of the same compound?
Answer: > 100 µM

Question: And the TGI [52]?
Answer: > 100 µM

Question: And the TGI [54]?
Answer: > 100 µM

Question: And the TGI [55]?
Answer: > 100 µM

Question: What about the TGI [57] of the same compound?
Answer: > 100 µM

Question: What about the TGI [58] of the same compound?
Answer: > 100 µM

Question: What about the TGI [59] of the same compound?
Answer: > 100 µM

Question: And the TGI [60]?
Answer: > 100 µM

Question: And the TGI [62]?
Answer: 95.5 µM

Question: What about the TGI [64] of the same compound?
Answer: > 100 µM

Question: What about the TGI [66] of the same compound?
Answer: > 100 µM
